Results from PMC5444859 (PLoS Pathogens, 2017).

Target: CASV L-Cterm (CAS virus, UniProt J7HBG8)
Type: binding

C[n+]1cn([C@@H]2O[C@H](COP(=O)(O)OP(=O)(O)OP(=O)(O)O)[C@@H](O)[C@H]2O)c2nc(N)[nH]c(=O)c21 [m^7GTP]
X-ray crystallography, crystal soaking: the cap-analogue was bound to F1839 at the periphery of the β-sheet
